US20130202653A1, “3-ARYL-3-HYDROXY-2-AMINO-PROPIONIC ACID AMIDES, 3-HETEROARYL-3-HYDROXY-2-AMINOPROPIONIC ACID AMIDES AND RELATED COMPOUNDS HAVING ANALGESIC AND/OR IMMUNO STIMULANT ACTIVITY” (Allergan, Inc., priority 2005, published 2013)
Where a name gives a salt, the structure may show the parent alone. Read-outs that look alike come from different tables or passages of the source.

Experiments:
spleen size = assay: Immunostimulation: splenic size after systemic administration; assay type: in vivo; details: animals dosed at 200 mg/kg; rats
Description: An art accepted method for measuring immuno stimulation comprises systemic administration of compounds to assay for the ability to stimulate the immune system, possibly due to nonspecific upregulation of the hemolymphoreticular system. This upregulation could result in increased numbers of lymphocytes of both T- and B-cell lineage.

[1] = system: tactile allodynia in the rat Chung model; assay: Chung model: reversal of tactile allodynia (von Frey hairs) after spinal nerve ligation; assay type: in vivo; details: for inhibition in vivo at 0.3 mg/kg / Peak % Pain reversal: time post dose: 300 μg/kg IP; for inhibition in vivo at 0.03 mg/kg: 30 μg/kg IP
Description: An art-accepted model or assay for measuring an analgesic effect of a compound in chronic pain (in particular peripheral neuropathy) is the model known as Kim and Chung 1992, Pain […], pp 355-363 (Chung model). This model involves the surgical ligation of the L5 (and optionally the L6) spinal nerves on one side in experimental animals. Rats recovering from the surgery gain weight and display a level of general activity similar to that of normal rats. However, these rats develop abnormalities of the foot, wherein the hindpaw is moderately everted and the toes are held together. More importantly, the hindpaw on the side affected by the surgery appears to become sensitive to low-threshold mechanical stimuli and will perceive pain instead of the faint sensation of touch. This sensitivity to normally non-painful touch, called “tactile allodynia”, develops within the first week after surgery and lasts for at least two months. The allodynia response includes lifting the affected hindpaw to escape from the stimulus, licking the paw and holding it in the air for many seconds. None of these responses is normally seen in the control group.
To produce the tactile allodynia, rats are anesthetized before surgery. The surgical site is shaved and prepared either with betadine or Novacaine. Incision is made from the thoracic vertebra X111 down toward the sacrum. Muscle tissue is separated from the spinal vertebra (left side) at the L4-S2 levels. The L6 vertebra is located and the transverse process is carefully removed with a small rongeur to expose the L4-L6 spinal nerves. The L5 and L6 spinal nerves are isolated and tightly ligated with 6-0 silk thread. The same procedure is done on the right side as a control, except no ligation of the spinal nerves is performed.
After a complete hemostasis is confirmed, the wounds are sutured. A small amount of antibiotic ointment is applied to the incised area, and the rat is transferred to the recovery plastic cage under a regulated heat-temperature lamp.
On the day of the experiment, at least seven days after the surgery, typically six rats per test group are administered the test drugs by intraperitoneal (i.p.) injection or oral gavage (p.o.). For i.p. administration, the compounds are formulated in H2O and given in a volume of 1 ml/kg body weight by injecting into the intraperitoneal cavity. For p.o. administration, the compounds are formulated in H2O and given in a volume of 1 ml/kg body weight using an 18-gauge, 3 inch gavage needle that is slowly inserted through the esophagus into the stomach.
Tactile allodynia is assessed via von Frey hairs, which are a series of fine hairs with incremental differences in stiffness. Rats are placed in a plastic cage with a wire mesh bottom and allowed to acclimate for approximately 30 minutes. To establish the pre-drug baseline, the von Frey hairs are applied perpendicularly through the mesh to the mid-plantar region of the rats' hindpaw with sufficient force to cause slight buckling and held for 6-8 seconds. The applied force has been calculated to range from 0.41 to 15.1 grams. If the paw is sharply withdrawn, it is considered a positive response. A normal animal will not respond to stimuli in this range, but a surgically ligated paw will be withdrawn in response to a 1-2 gram hair. The 50% paw withdrawal threshold is determined using the method of Dixon, W. J., Ann. Rev. Pharmacol. Toxicol. 20:441-462 (1980) hereby incorporated by reference. Tactile allodynia is measured prior to and 15, 30, and 60 minutes after drug administration. The post-drug threshold is compared to the pre-drug threshold and the percent reversal of tactile sensitivity is calculated based on a normal threshold of 15.1 grams.
Table 1 below indicates the degree of pain reversal obtained in the Chung model with exemplary compounds of the invention. […]

[2] = Rattus norvegicus, ip, 1 h, peak at 60 min post dose, read-out: Peak % Pain reversal: time post dose

## N[C@@H](C(=O)N1CCCC1)[C@@H](O)c1cccnc1 (racemic) (as salt: hydrochloride) [Compound 20, DL-threo-2-Amino-3-hydroxy-3-(pyridin-3-yl)-1-(pyrrolidin-1-yl)propan-1-one dihydrochloride]
other
  melting point: 159.6 °C

## N[C@@H](C(=O)N1CCCC1)[C@@H](O)c1ccncc1 (racemic) [Compound 22, DL-threo-2-Amino-3-hydroxy-3-(pyridin-4-yl)-1-(pyrrolidin-1-yl)propan-1-one dihydrochloride]
Spleen size
  increase in spleen size: twentyfive
[1]; Rattus norvegicus, ip, 1 h, 100 μg/kg IP, peak at 60 min post dose, read-out: Peak % Pain reversal: time post dose
  inhibition in vivo at 0.1 mg/kg: 100%
[1]; Rattus norvegicus, po, 1 h, 3000 μg/kg PO, peak at 60 min post dose, read-out: Peak % Pain reversal: time post dose
  inhibition in vivo at 3 mg/kg: 100%

## N[C@@H](C(=O)N1CCCC1)[C@@H](O)c1ccncc1 [Compound 203, (−)-(2R,3S)-2-Amino-3-hydroxy-3-(pyridin-4-yl)-1-(pyrrolidin-1-yl)propan-1-one dihydrochloride]
[1]; [2]
  inhibition in vivo at 0.3 mg/kg: 87%

## N[C@H](C(=O)N1CCCC1)[C@H](O)c1ccncc1 [Compound 204, (+)-(2S,3R)-2-Amino-3-hydroxy-3-(pyridin-4-yl)-1-(pyrrolidin-1-yl)propan-1-one dihydrochloride]
[1]; [2]
  inhibition in vivo at 0.3 mg/kg: 50%

## NC(C(=O)N1CC[C@H](F)C1)C(O)c1ccncc1 (stereo partly drawn) [Compound 214, (2S,3R)- & (2R,3S)-2-Amino-1-((S)-3-fluoropyrrolidin-1-yl)-3-hydroxy-3-(pyridin-4-yl)propan-1-one dihydrochlorides]
[1]; [2]
  inhibition in vivo at 0.03 mg/kg: 86%

## NC(C(=O)N1CC[C@@H](F)C1)C(O)c1ccncc1 (stereo partly drawn) [Compound 215, (2S,3R)- & (2R,3S)-2-Amino-1-((R)-3-fluoropyrrolidin-1-yl)-3-hydroxy-3-(pyridin-4-yl)propan-1-one dihydrochlorides]
[1]; [2]
  inhibition in vivo at 0.3 mg/kg: 73%

## N[C@@H](C(=O)N1CCCC1)[C@H](O)c1ccncc1 [Compound 220, (−)-(2R,3R)-2-amino-3-hydroxy-3-(pyridin-4-yl)-1-(pyrrolidin-1-yl)propan-1-one dihydrochloride]
[1]; Rattus norvegicus, ip, 0.5 h, peak at 30 min post dose, read-out: Peak % Pain reversal: time post dose
  inhibition in vivo at 0.3 mg/kg: 32%

## N[C@H](C(=O)N1CCCC1)[C@@H](O)c1ccncc1 [Compound 221, (+)-(2S,3S)-2-amino-3-hydroxy-3-(pyridin-4-yl)-1-(pyrrolidin-1-yl)propan-1-one dihydrochloride]
[1]; [2]
  inhibition in vivo at 0.3 mg/kg: 87%

## O=C([C@@H](NCc1cccc(I)c1)[C@H](O)c1ccncc1)N1CCCC1 [Compound 228, (+)-(2S,3R)-2-(3-iodobenzylamino)-3-hydroxy-3-(pyridin-4-yl)-1-(pyrrolidin-1-yl)-propan-1-one dihydrochloride]
[1]; [2]
  inhibition in vivo at 0.3 mg/kg: 36%

## O=C([C@H](NCc1cccc(I)c1)[C@@H](O)c1ccncc1)N1CCCC1 [Compound 229, (2R,3S)-2-(3-iodobenzylamino)-3-hydroxy-3-(pyridin-4-yl)-1-(pyrrolidin-1-yl)-propan-1-one dihydrochloride]
[1]; [2]
  inhibition in vivo at 0.3 mg/kg: 53%

## O=C([C@H](N[C@@H](CO)c1ccccc1)[C@@H](O)c1ccncc1)N1CCCC1 [Compound 234, (2R,3S)-2-((R)-2-Hydroxy-1-phenylethylamino)-3-hydroxy-3-(pyridin-4-yl)-1-(pyrrolidin-1-yl)propan-1-one dihydrochloride]
[1]; [2]
  inhibition in vivo at 0.3 mg/kg: 59%

## N[C@H](Cc1ccncc1)C(=O)N1CCCC1 [Compound 236, (R)-2-amino-3-(pyridin-4-yl)-1-(pyrrolidin-1-yl)propan-1-one dihydrochloride]
[1]; [2]
  inhibition in vivo at 0.3 mg/kg: 32%

## N[C@@H](Cc1ccncc1)C(=O)N1CCCC1 [Compound 240, (S)-2-amino-3-(pyridin-4-yl)-1-(pyrrolidin-1-yl)propan-1-one dihydrochloride]
[1]; [2]
  inhibition in vivo at 0.03 mg/kg: 70%

## Cl.Cl.N[C@H](C(=O)N1CC[C@@H](O)C1)[C@H](O)c1ccncc1 [Compound 247, (2S,3R)- & (2R,3S)-2-Amino-1-((R)-3-hydroxypyrrolidin-1-yl)-3-hydroxy-3-(pyridin-4-yl)propan-1-one dihydrochlorides]
[1]; peak at 60 min post dose
  Peak % Pain reversal: time post dose: 42% 60 min

## Cl.Cl.N[C@H](C(=O)N1CC[C@H](F)C1)[C@H](O)c1ccsc1 [Compound 256, (2S,3R)- & (2R,3S)-2-Amino-1-((S)-3-fluoropyrrolidin-1-yl)-3-hydroxy-3-(thiophen-3-yl)propan-1-one dihydrochlorides]
[1]; peak at 60 min post dose
  Peak % Pain reversal: time post dose: 62% 60 min
